Where a name gives a salt, the structure may show the parent alone.
Biological target: human α7 nAChRs transiently expressed in Xenopus laevis oocytes (Homo sapiens (Human), UniProt P36544)
Test: Oocyte electrophysiology screen (TEVC)
Assay type: cell-based
Conditions: 0.01 mM test compound, peak current relative to 0.2 mM ACh
Protocol: Oocyte Electrophysiology Screen (% ACh @ 10 μM Oocyte)
The Oocyte Electrophysiology Screen studies were performed under contract by HiQScreen Geneva, Switzerland. All experiments were carried out at human α7 nAChRs transiently expressed in Xenopus laevis oocytes using the method of cDNA expression. Currents evoked by acetylcholine or other agonist ligands were recorded using the standard two-electrode voltage-clamp configuration (TEVC). X. laevis oocytes were prepared and injected using standard procedures. Briefly, ovaries were harvested from X. laevis females that were deeply anesthetized and pithed following the animal rights rule from the Geneva canton. A small piece of ovary was isolated for immediate preparation while the remaining part was placed at 4° C. in a sterile Barth solution containing in mM: NaCl 88, KCl 1, NaHCO3 2.4, HEPES 10, MgSO4.7H2O 0.82, Ca(NO3)2.4H2O 0.33, CaCl2.6H2O 0.41, at pH 7.4, and supplemented with 20 μg/mL of kanamycin, 100 unit/mL penicillin and 100 μg/mL streptomycin. […] Cells were held at −80 mV. Data were filtered at 10 Hz, captured at 100 Hz and analyzed using proprietary data acquisition and analysis software running under Matlab (Mathworks Inc.).
Experimental Protocol and Analysis
After establishing a baseline transmembrane current, acetylcholine (ACh) was applied for 5 seconds at a concentration of 0.2 mM to establish a control ACh-evoked current response. Following a wash period of 90 s in OR2 medium (free of ACh), cells were then exposed for 30 s to the test compound applied at 0.01 mM. The same reference ACh test pulse was immediately given at the end of the compound exposure and again after 90 s of recovery in OR2 Medium (free of ACh or test compound). All data were determined in triplicate. The response evoked by the test compound was expressed as a percentage of that evoked by ACh: Response (% ACh)=100×(Itest/IACh) where Itest is the peak inward current measured during exposure to 0.01 mM of test compound and IACh is the peak inward current measured in the presence of ACh.

Chain of human α7 nAChRs transiently expressed in Xenopus laevis oocytes (P36544 23-502 limits assumed): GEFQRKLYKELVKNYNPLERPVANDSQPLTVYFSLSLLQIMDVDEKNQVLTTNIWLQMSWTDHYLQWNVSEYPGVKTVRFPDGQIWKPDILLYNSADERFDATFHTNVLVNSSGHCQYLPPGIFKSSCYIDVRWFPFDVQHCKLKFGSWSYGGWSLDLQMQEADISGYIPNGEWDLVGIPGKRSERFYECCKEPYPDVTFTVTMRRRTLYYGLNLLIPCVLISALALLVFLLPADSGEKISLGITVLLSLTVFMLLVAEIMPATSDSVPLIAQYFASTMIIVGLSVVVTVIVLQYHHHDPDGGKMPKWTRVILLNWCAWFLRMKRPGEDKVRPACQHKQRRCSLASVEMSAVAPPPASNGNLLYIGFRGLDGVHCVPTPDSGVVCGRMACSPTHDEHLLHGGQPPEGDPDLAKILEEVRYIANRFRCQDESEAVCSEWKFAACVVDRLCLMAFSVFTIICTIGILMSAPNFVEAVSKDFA

Compound | % ACh @ 10 μM Oocyte [% ACh]
O=C(NC1C2CCN(CC2)C12CC2)c1cc2ccc(F)cc2s1 (single isomer, unassigned; enantiomer2) [61b, 6-fluoro-N-(1′-azaspiro[cyclopropane-1,2′-bicyclo[2.2.2]octan]-3′-yl)benzo[b]thiophene-2-carboxamide-enantiomer2] | 1
O=C(NC1C2CCN(CC2)C12CC2)c1cc2cccc(C(F)(F)F)c2s1 (single isomer, unassigned; enantiomer2) [60b, N-(1′-azaspiro[cyclopropane-1,2′-bicyclo[2.2.2]octan]-3′-yl)-7-(trifluoromethyl)benzo[b]thiophene-2-carboxamide-enantiomer2] | 1
CC1(C)[C@H](NC(=O)c2ccc3ccoc3c2)C2CCN1CC2 [(R)-31, (R)—N-(2,2-dimethylquinuclidin-3-yl)benzofuran-6-carboxamide hydrochloride] | 294
O=C(N[C@@H]1C2CCN(CC2)C12CC2)c1cc2ccc(-n3ccnn3)cc2s1 [(R)-98, (R)—N-(1′-azaspiro[cyclopropane-1,2′-bicyclo[2.2.2]octan]-3′-yl)-6-(1H-1,2,3-triazol-1-yl)benzo[b]thiophene-2-carboxamide hydrochloride] | 3
O=C(N[C@@H]1C2CCN(CC2)C12CC2)c1cnc2occc2c1 [(R)-89, (R)—N-(1′-azaspiro[cyclopropane-1,2′-bicyclo[2.2.2]octan]-3′-yl)furo[2,3-b]pyridine-5-carboxamide hydrochloride] | 0
CC1(C)[C@@H](NC(=O)c2cc3cc(Cl)c(Cl)cc3s2)C2CCN1CC2 [(S)-14, (S)-5,6-dichloro-N-(2,2-dimethylquinuclidin-3-yl)benzo[b]thiophene-2-carboxamide hydrochloride] | 3
CC1(C)[C@H](NC(=O)c2ccc3occ(Cl)c3c2)C2CCN1CC2 [(R)-41, (R)-3-chloro-N-(2,2-dimethylquinuclidin-3-yl)benzofuran-5-carboxamide hydrochloride] | 384
CC1(C)[C@H](NC(=O)c2ccc3occc3n2)C2CCN1CC2 [(R)-37, (R)—N-(2,2-dimethylquinuclidin-3-yl)furo[3,2-b]pyridine-5-carboxamide hydrochloride] | 5
Cl.Cn1cnc2ccc(C(=O)N[C@@H]3C4CCN(CC4)C3(C)C)cc21 [(R)-206, (R)-N-(2,2-dimethylquinuclidin-3-yl)-1-methyl-1H-benzo[d]imidazole-6-carboxamide hydrochloride] | 0
COc1ccc2sc(C(=O)N[C@@H]3C4CCN(CC4)C3(C)C)cc2c1 [(R)-21, (R)—N-(2,2-dimethylquinuclidin-3-yl)-5-methoxybenzo[b]thiophene-2-carboxamide hydrochloride] | 73
(R)-N-(2,2-dimethylquinuclidin-3-yl)-6-(trifluoromethoxy)benzo[b]thiophene-2-carboxamide hydrochloride [(R)-209] | 1
Cc1coc2ccc(C(=O)N[C@@H]3C4CCN(CC4)C34CC4)cc12 [(R)-93, (R)-3-methyl-N-(1′-azaspiro[cyclopropane-1,2′-bicyclo[2.2.2]octan]-3′-yl)benzofuran-5-carboxamide hydrochloride] | 516
Cl.Cn1c(C(=O)N[C@@H]2C3CCN(CC3)C2(C)C)cc2ccccc21 [(R)-221, (R)-N-(2,2-dimethylquinuclidin-3-yl)-1-methyl-1H-indole-2-carboxamide hydrochloride] | 188

Same assay, conditions: 0.01 mM test compound, peak current relative to 0.2 mM ACh; hydrochloride

Compound | % ACh @ 10 μM Oocyte [% ACh]
COc1ccc2sc(C(=O)NC3C4CCN(CC4)C34CC4)cc2c1 (single isomer, unassigned; enantiomer2) [74b, 5-methoxy-N-(1′-azaspiro[cyclopropane-1,2′-bicyclo[2.2.2]octan]-3′-yl)benzo[b]thiophene-2-carboxamide-enantiomer2 hydrochloride] | 4
